According to publication PMC7297445, “Pharmacokinetic/Pharmacodynamic Determination and Preclinical Pharmacokinetics of the β-Lactamase Inhibitor ETX1317 and Its Orally Available Prodrug ETX0282” (ACS Infectious Diseases, 2020):
Entries after “also recorded” stand apart in the source; their conditions may differ.

Legend:
E. coli ARC2687 = test: Murine neutropenic thigh infection model; assay type: in vivo, mouse
Procedure: (§1) In vivo neutropenic infection models in the mouse were conducted as previously described.[48],[49] All procedures were performed to Entasis approved IACUC policies and guidelines as well as OLAW standards. Briefly, Female CD-1 mice (20–22 g, Charles River Laboratories) were acclimated for 5 days prior to start of study. Animals were housed 3 per cage with free access to food and water. Mice were rendered neutropenic via two doses of cyclophosphamide on days −4 and −1 with 150 mg/kg and 100 mg/kg delivered intraperitoneally in a dose volume of 10 mL/kg, respectively.[48]
(§2) Enterobacteriaceae isolates ARC2687, ARC4488, ARC5118, NMC101, and ARC4419 were prepared for infection from an overnight plate culture. A portion of the plate was resuspended in sterile saline and adjusted to an OD of 0.1 at 625 nm. The adjusted bacterial suspension was further diluted to target an infecting inoculum of approximately 5.0 × 10^6–1.0 × 10^7 CFU/mouse. The actual inoculum size varied between 5.5 × 10^6–1.6 × 10^6 CFU/thigh and administered via intramuscular injection of (100 μL). Plate counts of the inoculum were performed to confirm inoculum concentration and treatment was initiated 2 h after bacterial challenge.
(§3) ETX0282 and CPDP were formulated in 0.5% HPMC/0.1% Tween 80 suspension. meropenem (utilized as a positive control) was solubilized in water for injection. All studies utilized a meropenem dosed at 600 mg/kg q6h subcutaneously as positive control against meropenem sensitive isolates (MIC ≤ 2 μg/mL) and as a negative control against meropenem resistant isolates. For dose arms utilizing a combination of ETX0282 and CPDP, both agents were reconstituted in the same vehicle. All dose concentrations were adjusted to deliver targeted mg/kg doses within a dose volume of 10 mL/kg. Formulation potency was verified by LC/MS/MS.
(§4) ETX0282 and CPDP were administered via q6h dose intervals in order to achieve targeted unbound exposures. At 24 h post initiation of therapy, animals were euthanized, tissue samples aseptically collected and homogenized. Bacterial colony enumeration of tissue homogenate was performed by serial dilution on TSA plates which were incubated overnight at 35 °C prior to colony (CFU) counting.

K. pneumoniae ARC4488 = test: Murine neutropenic thigh infection model; assay type: in vivo, mouse; conditions: 50 mg/kg p.o./q6h
Procedure: as §1, §2, §3, §4

K. pneumoniae ARC5118 = test: Murine neutropenic thigh infection model; assay type: in vivo, mouse; conditions: 50 mg/kg p.o./q6h
Procedure: as §1, §2, §3, §4

E. coli ARC4419 = test: Murine neutropenic thigh infection model; assay type: in vivo, mouse
Procedure: (§5) To further understand whether this in vitro activity translated to in vivo efficacy, an additional neutropenic thigh study was conducted in mice with increasing doses of ETX0282 alone vs E. coli NMC101 (ETX1317 MICBLI = 1 μg/mL) and ARC4419 (ETX1317 MICBLI = 0.25 μg/mL). […] Despite the significant exposure of ETX1317, a 200 mg/kg q6h dose of ETX0282 alone was ineffective for both strains (Table 6).
as §1, §2, §3, §4

E. coli NMC101 = test: Murine neutropenic thigh infection model; assay type: in vivo, mouse
Procedure: as §5, §1, §2, §3, §4

[1] = test system: E. coli strain (ATCC 25922); test: Murine neutropenic thigh model, CPDP dose range study; assay type: in vivo, mouse; conditions: 50 mg/kg oral q6h, administered alone
Excerpt: All in vivo efficacy studies were supported with PK of ETX1317 and CPD following oral administration of ETX0282 and CPDP. For the purposes of understanding the exposure-PD response relationship, total systemic concentrations of ETX1317 and cefpodoxime were normalized to unbound drug levels after accounting for protein binding with percent unbound estimates of 93% and 66%, respectively, in mouse plasma (Table S2). An in vivo dose range study with CPDP administered alone against a susceptible E. coli strain (ATCC 25922, CPD MIC = 0.5 μg/mL) was completed initially in a murine neutropenic thigh model to confirm its PK/PD target. In this study a 50 mg/kg oral dose of CPDP administered q6h was consistent with achieving 1–log kill over 24 h. […] Oral exposure was generally dose proportional to 50 mg/kg; however, it became less than dose proportional at ≥200 mg/kg.
as §1, with “Mice were rendered neutropenic via two doses of cyclophosphamide on days −4 and −1 with 150 mg/kg and 100 mg/kg delivered intraperitoneally in a dose volume of 10 mL/kg, respectively.[48]” left out

[2] = Mouse oral pharmacokinetics (satellite infected animals); assay type: in vivo; conditions: after oral administration in mice
[3] = Human PK prediction (allometric scaling); conditions: based upon non-clinical PK data
Excerpt: The methodology utilized for prediction of human PK of ETX1317 was consistent with methods used in support of similar chemotypes such as avibactam and ETX2514.[43] Human predictions for volume of distribution (Vd,ss) and clearance (CL) were within 2-fold of observed mean data obtained in Phase 1 studies, with renal clearance as the predominant clearance mechanism.[44],[45] Pharmacokinetic and excretion data from rats, dogs, and monkeys were used collectively for the projection of ETX1317 PK. Liver S9 incubations were also performed across all species (including human) to confirm consistent conversion of ETX0282 to ETX1317 at projected dose levels of ETX0282.[42] Human PK prediction of ETX1317 was completed using single species allometry for volume of distribution from dog PK and dog and monkey single species scaling using liver blood flow to predict non-renal clearance (CLNR).[46] […] While urinary excretion of ETX1317 was lower in dogs relative to monkeys and rats, human renal clearance (CLR) was predicted using dog-human renal correlation,[47] as this method has been highly predictive for compounds that are generally eliminated via renal excretion. The elimination half-life was estimated based upon the combined use of predicted parameters for clearance and volume of distribution, where T1/2 = ln 2*Vd,ss/CLtotal. Allometric scaling predicted human Vd,ss of 0.35 L/kg.
(§6) Based upon the non-clinical PK data, a range of 60–80% bioavailability and a moderate absorption rate of 0.5–1.0 h^–1 have been considered for humans. In consideration of these predicted parameters, mean percent fT > CT of 1 μg/mL (2× MIC of 0.5 μg/mL) estimates for a 500 mg ETX1317 equiv q12h dose of ETX0282 are summarized in Table S3.

[4] = Low-dose oral PK of ETX0282 across rats, dogs and monkeys; assay type: in vivo; conditions: oral 1 to 10 mg/kg
Procedure: Intravenous and oral pharmacokinetics of ETX1317 and ETX0282 in preclinical species are summarized in Table 7 and Table S1, respectively. Time vs concentration profiles are depicted graphically in Figure S1.
as §6
Intravenous pharmacokinetics of ETX1317 investigated in jugular vein cannulated male Sprague–Dawley rats (Charles River Laboratories, n = 3/route) at a dose of 10 mg/kg formulated in 0.9% saline. Oral pharmacokinetics of ETX0282 was evaluated at a 10 mg/kg equivalent dose of ETX1317 formulated in 25:75 PEG 400:WFI. The pH of each formulation was verified to fall within a range of 4–7 and were confirmed to be in solution prior to dosing. Potency was verified by LC/MS/MS. Dose volumes were 5 and 10 mL/kg for ETX1317(i.v.) and ETX0282(p.o.), respectively for rats. In both dog (male, 3/route) and monkey (male, 3/route) studies, i.v. and p.o. doses were formulated on 25:75 PEG 400:WFI (pH ∼5) and administered at a dose of ∼1 mg/kg. Dose volume was 1 mL/kg for both routes in dogs and monkeys with the i.v. dose infused over 15 min. […]

[5] = set-up: method as in PMID 32658473; conditions: across all species, including humans; cited from earlier work
[6] = set-up: method as in PMID 9950279; conditions: oral; PEPT1 substrate; cited from earlier work
[7] = ETX0282 alone 200 mg/kg q6h, combination 50:50 mg/kg q6h

Structure (SMILES) | log10 CFU/g thigh change 24 h post therapy initiation (E. coli ARC2687; 50 mg/kg p.o./q6h) | log10 CFU/g thigh change 24 h post therapy initiation (K. pneumoniae ARC4488) | log10 CFU/g thigh change 24 h post therapy initiation (K. pneumoniae ARC5118) | log10 CFU/g thigh change 24 h post therapy initiation (E. coli ARC4419; 50 mg/kg p.o./q6h) | log10 CFU/g thigh change 24 h post therapy initiation (E. coli NMC101; 50 mg/kg p.o./q6h) | efficacy over 24 h [1] | systemic concentrations of intact prodrug [2] | log10 CFU/g thigh change 24 h post therapy initiation (E. coli ARC2687; 10 mg/kg p.o./q6h (footnote c)) | log10 CFU/g thigh change 24 h post therapy initiation (E. coli ARC4419; 10 mg/kg p.o./q6h) | log10 CFU/g thigh change 24 h post therapy initiation (E. coli ARC4419; 200 mg/kg p.o./q6h) | in vivo efficacy in words (E. coli ARC4419; [7]) | log10 CFU/g thigh change 24 h post therapy initiation (E. coli NMC101; 10 mg/kg p.o./q6h) | log10 CFU/g thigh change 24 h post therapy initiation (E. coli NMC101; 200 mg/kg p.o./q6h) | in vivo efficacy in words (E. coli NMC101; [7]) | absorption rate considered for humans [3] | circulating levels of intact prodrug [4] | conversion of ETX0282 to ETX1317 in liver S9 [5] | bioavailability [6] [%]
COCC1=C(C(=O)OC(C)OC(=O)OC(C)C)N2C(=O)[C@@H](NC(=O)/C(=N\OC)c3csc(N)n3)[C@H]2SC1 (stereo partly shown) [CPDP, cefpodoxime proxetil] | +3.61 log10 CFU/g | +3.58 log10 CFU/g | +2.66 log10 CFU/g | +2.23 log10 CFU/g | +3.39 log10 CFU/g | 1–log kill | No concentrations of intact CPDP and ETX0282 were observed systemically | – | – | – | – | – | – | – | – | – | – | –
CC1=C[C@@H](C(N)=O)N2C[C@@H]1N(O[C@H](F)C(=O)OC(C)C)C2=O [ETX0282] | – | – | +1.31 log10 CFU/g | +1.06 log10 CFU/g | +1.83 log10 CFU/g | – | No concentrations of intact CPDP and ETX0282 were observed systemically | +2.93 ^c log10 CFU/g | +1.41 log10 CFU/g | +1.07 log10 CFU/g | ineffective | +2.10 log10 CFU/g | +1.39 log10 CFU/g | ineffective | 0.5–1.0 h^–1 | minimal to no levels of ETX0282 | efficient conversion; also recorded: Extensive and quantitative conversion | –
CC1(C)S[C@@H]2[C@H](NC(=O)[C@H](N)c3ccc(O)cc3)C(=O)N2[C@H]1C(=O)O [amoxicillin] | – | – | – | – | – | – | – | – | – | – | – | – | – | – | – | – | – | > 70
